Results from US9868935B2, “Composition and method of stem cells for preservation of cardiac tissue” (CRIOESTAMINAL, SAÚDE E TECNOLOGIA, SA., priority 2012, dated 2018).

Test system: human umbilical cord blood derived CD34+ cells
Assay: CD34+ cell survival in hypoxia and serum deprived conditions (Annexin V/PI flow cytometry)
Assay type: cell-based
Conditions: for percentage of viable cells: LPA-treated (100 μM)
Procedure: In an embodiment, UCB CD34+ cells (1×10^^6 cells/mL) were incubated in X-Vivo media (Lonza) in a hypoxia chamber for 24 h (0.5% of O2 and 5% of CO2), in the presence or absence of pharmacological drugs, for further assessment of cell survival/apoptosis and necrosis by FACS analysis of the expression of annexin V and PI respectively. Preferably, cells were pretreated with the respective drugs for 1 hour before hypoxia, and treatment maintained during hypoxia.
In a preferred embodiment, to identify molecules that promote CD34+ cell survival in hypoxia and serum deprived conditions we developed an assay that uses human umbilical cord blood derived CD34+ cells (2×10^^5 cells per well of a 96-well plate) suspended in X-Vivo medium (used in clinical trials (Schachinger, V., et al., Intracoronary bone marrow-derived progenitor cells in acute myocardial infarction. N Engl J Med, 2006. 355(12): p. 1210-21)) and incubated in a hypoxia chamber at 0.5% O2, at 37° C., for 24 h. Some of the drugs selected have been approved by FDA for the treatment of cardiovascular diseases (e.g. Nebivolol Lombardo, R. M., et al., Effects of nebivolol versus carvedilol on left ventricular function in patients with chronic heart failure and reduced left ventricular systolic function. Am J Cardiovasc Drugs, 2006. 6(4): p. 259-63; Ibersatan Massie, B. M., et al., Irbesartan in patients with heart failure and preserved ejection fraction. N Engl J Med, 2008. 359(23): p. 2456-67), others are being evaluated in pre-clinical/clinical assays to improve heart function in patients/models with heart failure (e.g. INO1001 (Szabo, G., et al., INO-1001 a novel poly(ADP-ribose) polymerase (PARP) inhibitor improves cardiac and pulmonary function after crystalloid cardioplegia and extracorporal circulation. Shock, 2004. 21(5): p. 426-32); erythropoietin (Belonje, A. M., et al., Effects of erythropoietin after an acute myocardial infarction: rationale and study design of a prospective, randomized, clinical trial (HEBE III). Am Heart J, 2008. 155(5): p. 817-22); melatonin (Chen, Z., et al., Protective effect of melatonin on myocardial infarction. Am J Physiol Heart Circ Physiol, 2003. 284(5): p. H1618-24); VX-702 (Ma, X. L., et al., Inhibition of p38 mitogen-activated protein kinase decreases cardiomyocyte apoptosis and improves cardiac function after myocardial ischemia and reperfusion. Circulation, 1999. 99(13): p. 1685-91)), others are natural substances found in the human body (LPA). Cell viability was evaluated by flow cytometry using Annexin V/propidium iodide (PI) staining. Annexin V is a phospholipid-binding protein with specificity for phospatidyl serine, one of the earliest makers of cellular transition to an apoptotic state. This phospholipid is translocated from the inner to the outer leaflet of the plasma membrane (Koopman, G., et al., Annexin V for flow cytometric detection of phosphatidylserine expression on B cells undergoing apoptosis. Blood, 1994. 84(5): p. 1415-20.). PI enters in necrotic cells and binds to double-stranded nucleic acids, but is excluded from cells with normal integrity. According to FIG. 1, untreated CD34+ cells show a very poor survival, with only ˜31% of viable cells, ˜31% of apoptotic cells (Annexin V+/PI−) being the majority of the cells ˜39% at the necrotic stage (PI+). […] LPA (10 μM) was the drug with the highest pro-survival effect (˜69% of viable cells) and therefore further studied (FIGS. 1 and 2A).
Importantly, the percentage of viable cells in CD34+ treated with 1 μM of LPA and cultured under hypoxia conditions is similar to untreated cells cultured under normoxia conditions. The pro-survival effect of LPA decreases as a function of hypoxia time (FIG. 2C). The percentage of viable cells in LPA-treated CD34+ cells decreased from 78% at day 1 to 40% at day 3.

lysophosphatidic acid [LPA]
survival of CD34+ cells vs control (untreated cells) (1 μM LPA, hypoxia 24 h, P<0.001, n=6): statistically significant
viable cells (LPA 10 μM, hypoxia 0.5% O2, 24 h, serum free X-Vivo medium): ~69%
percentage of viable cells (hypoxia day 1): 78%
percentage of viable cells (hypoxia day 3): 40%
cell survival vs untreated cells (hypoxia 0.5% O2, 24 h, serum free, P<0.001): improved significantly
survival relatively to untreated cells (hypoxia and serum deprived conditions): double their survival
